# Results from patent publication US20030064380A1, “Anergy-regulated molecules” (The Center For Blood Research, Inc., priority 2001, published 2003).
# Experiments:
# [1] = test system: D5 T cells; assay: proliferation assay (3H-thymidine) of D5 T cells after ionomycin pretreatment; type: cell-based, murine
# Method: D5 or primary T cells were stimulated with APC and antigen and pulsed for 24 hours with 10 μCi/ml ^3H-thymidine. DNA was collected using a cell harvester and the amount of radioactivity incorporated was measured in a β-counter.
# (§1) The murine antigen-specific Th1 clone D5 was used to set up the model of clonal anergy developed by Schwartz and coworkers (Schwartz, (1996) J. Exp. Med. 184: 1-8).
# [2] = test system: D5 cells; assay: transcription of inducible genes in ionomycin-treated D5 cells on second stimulation (RNase protection); type: cell-based, murine; settings: second stimulation with anti-CD3/anti-CD28 or antigen/APC
# Method: Total cellular RNA was purified from resting cells or cells stimulated with APC and antigen or anti-CD3 plus anti-CD28 for 4 h, using Ultraspec reagent (Biotecx) and analyzed using the RiboQuant multiprobe RNase protection kit and specific multi-set probes (Pharmingen) according to the manufacturer's instructions. Jurkat cells were transfected by electroporation in serum-free medium with pulses of 250 V and 960 μF with […] of pEGFPN1 (Clontech) or pNLS-NFAT1 (ST2+5+8) (Okamura et al., (2000) Mol. Cell. 6: 539-550). RNA from transiently transfected Jurkat cells was obtained after selecting transfected cells for expression of a cotransfected murine CD4 plasmid using magnetic beads (Dynal).
# as §1
compound,measurement,setting,value
"C[C@H](CCC(=O)O)C[C@H](C)C[C@H](C)C(=O)/C=C(\O)[C@H](C)C[C@H](C)C/C=C/[C@@H](C)[C@@H](O)[C@@H](C)[C@@H](O)C[C@@H]1CC[C@@](C)([C@H]2CC[C@@](C)([C@@H](C)O)O2)O1 [Ionomycin, ionomycin]",subsequent proliferative response to antigen or anti-CD3,[1],greatly diminished
same,"transcription of inducible genes including IL-2, IFN-γ, TNF-α, GM-CSF and MIP-1α",[2],markedly decreased
